The text below walks through data of patent US10392381B2, “Prevention and treatment of non-alcoholic fatty liver disease” (Ohio University, priority 2014, dated 2019).

Assay [1] has as its system Patients at risk for developing NAFLD. Put plainly: Therapeutic use to prevent development of NAFLD in patients at risk (Example 10, contemplated). To be noted: once daily oral dose of 1 mg/kg, chronically. The assay is classed as in vivo, human. The procedure: Contemplated Experimental Protocol. Patients at risk for developing NAFLD are prescribed COB-204, COB-214, COB-152, or COB-187 to prevent excess accumulation of fat. Each patient takes a once daily oral dose of 1 mg/kg of body weight of the COB-204, COB-214, COB-152, or COB-187, chronically, during which fat content in the liver is determined via liver function testing, liver ultrasound, and liver biopsy.

A further assay relates to Patients having NAFLD. Put plainly: Therapeutic use to treat NAFLD in patients (Example 11, contemplated). The assay is classed as in vivo, human. As to conditions: once daily oral dose of 3 mg/kg. The procedure:
Contemplated Experimental Protocol. Patients having NAFLD are prescribed COB-204, COB-214, COB-152, or COB-187 to reduce the fat content in their liver. After determination of a baseline level of fat content in each of the patients' livers, each patient takes a once daily oral dose of 3 mg/kg of body weight of the COB-204, COB-214, COB-152, or COB-187, during which fat content in each patient's liver tissue is determined via liver function testing, liver ultrasound, and liver biopsy.

In assay [2] the test system is C57BL/6J mice on an HFD with NAFLD (liver tissue). Put plainly: Treatment of NAFLD in C57BL/6J mice fed a HFD (Example 8, contemplated). The assay is classed as in vivo. As to conditions: C57BL/6J mice on HFD after NAFLD is observed; once daily ip 1, 3 or 10 mg/kg/day for up to 16 weeks (24 weeks if no effect). The procedure:
Contemplated Experimental Protocol. C57BL/6J mice are placed on an HFD containing 60% fat (by % Kcal) (Diet #D12492, Research Diets, Inc.) for a period of weeks (as determined by the results of Example 6) until development of NAFLD is observed and clearly distinguishable from LFD-fed mice of the same age (between 4-8 weeks). At the time or after NAFLD is observed, once daily ip injections of COB-204, COB-214, COB-152, COB-187, DMSO, or sham are administered. Five mice are then euthanized weekly thereafter to characterize the effects of the COB-204, COB-214, COB-152, COB-187, DMSO, and/or sham on treatment of NAFLD for the period of up to 16 weeks post-initiation of the COB-204, COB-214, COB-152, COB-187, DMSO, and sham administration. The period of time for which treatment is administered will be extended to 24 weeks if no effect of the COB-204, COB-214, COB-152, or COB-187 administration on treatment of NAFLD is observed. The following Table further illustrates the experimental design:
If no effect of the COB-204, COB-214, COB-152, or COB-187 administration on treatment of NAFLD is observed by 16 weeks post-initiation of the COB-204, COB-214, COB-152, COB-187, DMSO, and sham administration, a subsequent study is performed wherein the period of time is extended to 24 weeks of the COB-204, COB-214, COB-152, and COB-187 administration, with 5 mice euthanized weekly from weeks 17-24 as previously described. The following Table further illustrates the experimental design:
NAFLD is evaluated in the liver of the HFD mice macroscopically, microscopically, and molecularly. More specifically, following euthanasia, the liver of each mouse is removed, weighed, and photographs taken thereof for macroscopic and/or gross observation of NAFLD. Then, the liver of each mouse is split in half, wherein one half is used for microscopic analysis of NAFLD and the remaining half is used for molecular analysis of NAFLD (i.e., quantification of triglycerides). Quantification of triglycerides is performed in accordance with the general protocol described in Example 6.

Assay [3] has as its system C57BL/6J mice on a HFD (liver tissue). Put plainly: Prevention of NAFLD in C57BL/6J mice fed a HFD (Example 7): macroscopic observation, hematoxylin and eosin histology, liver triglyceride quantification. The assay is classed as in vivo. As to conditions: C57BL/6J mice on HFD; for mean triglyceride concentration (mg/g liver) in liver tissue compared with HFD or HFD + DMSO mice / Percentage of Triglyceride Values (mg/g liver) Below the Mean of the HFD + Sham Group / macroscopic observation of fatty liver disease compared with sham or DMSO injection: 1 mg/kg intraperitoneal once daily for 6 weeks; for mean triglyceride concentration (mg/g liver) in liver tissue compared with HFD or HFD + DMSO mice: comparison of means in FIG. 3; for Percentage of Triglyceride Values (mg/g liver) Below the Mean of the HFD + Sham Group: middle, right and left liver lobes (FIG. 3), 1 mg/kg; for macroscopic observation of fatty liver disease compared with sham or DMSO injection: removed liver tissue; for histological examination of hepatic fat accumulation compared with sham or DMSO injection: 1 mg/kg intraperitoneal once daily, middle lobe of liver, hematoxylin and eosin (FIG. 4). The procedure: Quantification of triglycerides of the middle, right, and left lobes was performed to ensure that accumulation (or lack thereof) of triglycerides was similar in each lobe of the liver and to ensure that a representative analysis of triglyceride accumulation in the liver as a whole was assessed. The caudate lobe was excluded since the caudate lobe is very small compared to the middle, right, and left lobes. Triglycerides were quantified in accordance with the following general protocol, based upon the Salmon and Flatt Method of Liver Saponification. 50-100 mg of liver tissue was placed into an Eppendorf tube and weighed. Equal volume per weight of 3 M KOH (in 65% EtOH) was added to the tube and vortexed. The tube was placed at 70° C. for 1 hr to activate digestion. The tubes were vortexed every 15 minutes. The tube was set at room temperature overnight to allow for complete digestion, and was vortexed periodically. The sample was diluted to a final concentration of 100 mg of liver tissue per 600 μl fluid; the sample was diluted by adding 2 M Tris-HCl (un-pHed) to a final concentration of 50 mM. Where a second dilution was required, the sample was diluted using 50 mM Tris-HCl (pH 7.5). Triglycerides-GPO (0.5 mL, liquid; Pointe Scientific Cat. No. T7532-500; Fisher Scientific, Pittsburgh, Pa.) were aliquoted into Eppendorf tubes and warmed in a 37° C. water bath for 5-10 minutes. Glycerol standards (0, 1, 2.5, 5, 7.5 and 10 mmol/L) were made by diluting 10 mmol/L stock of glycerol, such as, e.g., with 50 mM Tris-HCl. 5 μL of the sample and glycerol standards (0, 1, 2.5, 5, 7.5 and 10 mmol/L) were added to 0.5 mL of the triglycerides-GPO, mixed, and incubated at room temperature for 5 minutes. The mixture was then vortexed and added (200 μL) to each well of a 96-well flat-bottom ELISA plate (in triplicate). Absorbance (i.e., optical density) was read at 500 nm. The concentrations of the samples were determined via use of a plot of glycerol standards concentration (mmol/L) with respect to optical density (i.e., O.D.) at 500 nm. The concentration of glycerol (mg glycerol/g tissue) was then calculated and triglyceride concentration was determined, in accordance with calculations known to those of ordinary skill in the art.
Experimental Protocol. 7 week old male C57BL/6J mice (i.e., a mouse model of obesity-induced insulin resistance and Type 2 Diabetes Mellitus) were placed on a HFD (i.e., having a fat content of 60%, a protein content of 20%, and a carbohydrate content of […], N=50). The C57BL/6J mice on the HFD were divided into five groups, wherein one such group was immediately given an intraperitoneal sham injection (i.e., Group 1, serving as a stress control N=10), another group was immediately given an intraperiteonal injection of dimethyl sulfoxide (hereinafter, “DMSO”, i.e., Group 2, serving as a vehicle control, N=10), another group was immediately given an intraperitoneal injection of 1 mg/kg COB-204 (i.e., Group 3, N=10), another group was immediately given an intraperitoneal injection of 1 mg/kg COB-214 (i.e., Group 4, N=10), and another group was immediately given an intraperitoneal injection of 1 mg/kg COB-187 (i.e., Group 5, N=10). Such injections were initiated with the HFD and were given to the C57BL/6J mice on the HFD once daily for a period of 6 weeks. Food intake and total body weight of the C57BL/6J mice were measured weekly.
At 0 weeks, some of the C57BL/6J mice from each of Groups 1-5 were euthanized (N=5). Liver tissue of the C57BL/6J mice euthanized at 0 weeks was harvested and divided into lobes, including the middle lobe, the right lobe, and the left lobe, for morphological (i.e., hematoxylin and eosin staining) and molecular analysis (i.e., quanitification of triglycerides). The caudate lobe was excluded from such division as the caudate lobe is very small compared to the middle, right, and left lobes. […]

As to `OC1(c2ccccc2)CSC(=S)N1Cc1cccnc1` (stereo not drawn) [COB-152], the “excess accumulation of fat in the liver of patients” value (“excess accumulation of fat” below) in assay [1] is “no excess accumulation of fat”. Also, the “fat content in the patient's liver” value in the assay on Patients having NAFLD is given as “reduced relative to the baseline level”. For the same compound, in assay [2], the “fat content in the liver tissue of the mice” value (from here on “fat content … of the mice”) is on record as “reduced relative to a baseline level”.

`CCCn1c(-c2cccnc2)csc1=S` [COB-214]: in assay [3], the “mean triglyceride concentration (mg/g liver) in liver tissue compared with HFD or HFD + DMSO mice” value is on record as “lower mean triglyceride concentration”, the “Percentage of Triglyceride Values (mg/g liver) Below the Mean of the HFD + Sham Group” value (shortened to “Percentage of Triglyceride Values”) is recorded as 87%, the “macroscopic observation of fatty liver disease compared with sham or DMSO injection” value is listed as “much less fatty liver disease” and the “histological examination of hepatic fat accumulation compared with sham or DMSO injection” value was “much less hepatic fat accumulation”. Besides, in assay [1], the “excess accumulation of fat” value is “no excess accumulation of fat”. Also, the “fat content in the patient's liver” value in the assay on Patients having NAFLD is reported as “reduced relative to the baseline level”. In assay [2], the “fat content … of the mice” value is “reduced relative to a baseline level”.

On to `OC1(c2ccccc2)CSC(=S)N1Cc1ccncc1` (stereo not drawn) [COB-187], for which, in assay [3], the “mean triglyceride concentration (mg/g liver) in liver tissue compared with HFD or HFD + DMSO mice” value was “lower mean triglyceride concentration”, the “Percentage of Triglyceride Values” value was 79%, the “macroscopic observation of fatty liver disease compared with sham or DMSO injection” value is “much less fatty liver disease” and the “histological examination of hepatic fat accumulation compared with sham or DMSO injection” value is listed as “much less hepatic fat accumulation”. The “excess accumulation of fat” value in assay [1] is on record as “no excess accumulation of fat”. Also, in the assay with Patients having NAFLD, the “fat content in the patient's liver” value is on record as “reduced relative to the baseline level”. For the same compound, the “fat content … of the mice” value in assay [2] was “reduced relative to a baseline level”.

For the compound `COc1ccc(-c2csc(=S)n2Cc2cccnc2)c(OC)c1` [COB-204], in assay [3], the “mean triglyceride concentration (mg/g liver) in liver tissue compared with HFD or HFD + DMSO mice” value is reported as “no effect”, the “Percentage of Triglyceride Values” value stood at 60%, the “macroscopic observation of fatty liver disease compared with sham or DMSO injection” value is reported as “much less fatty liver disease” and the “histological examination of hepatic fat accumulation compared with sham or DMSO injection” value is “much less hepatic fat accumulation”. Also, the “excess accumulation of fat” value in assay [1] is given as “no excess accumulation of fat”. For the same compound, the “fat content in the patient's liver” value in the assay with Patients having NAFLD was “reduced relative to the baseline level”. The “fat content … of the mice” value in assay [2] was “reduced relative to a baseline level”.
